Data from the NIST ThermoML archive (doi:10.1021/acs.jced.5b00242).

Assays:
[1] = xn = mol fraction of the nth substance listed; details: 101 kPa, Liquid; for viscosity: Stabinger Viscometer; for mass density: Vibrating tube method
[2] = refractive index (Na D-line) (dimensionless); xn = mol fraction of the nth substance listed; details: 101 kPa, Liquid, Standard Abbe refractometry

CC[n+]1ccn(C)c1.N[C@@H](CO)C(=O)[O-] [3-ethyl-1-methyl-1H-imidazolium L-serinate] + CCn1cc[n+](C)c1.N#C[C-](C#N)C#N
Details	mass density, [1] [kg/m3]	refractive index, [2]	viscosity, [1] [mPa·s]
293.15 K, x2 = 0	1206.8	1.52699	3796.8
293.15 K, x2 = 0.2502	1177.2	1.52075	586.84
293.15 K, x2 = 0.5005	1141.8	1.51865	168.52
293.15 K, x2 = 0.7497	1112.9	1.51552	42.01
298.15 K, x2 = 0	1203.7	1.52565	2235.5
298.15 K, x2 = 0.2502	1173.6	1.51929	384.17
298.15 K, x2 = 0.5005	1138.4	1.51718	120.68
298.15 K, x2 = 0.7497	1109.3	1.5139	33.37
303.15 K, x2 = 0	1200.5	1.52429	1376.2
303.15 K, x2 = 0.2502	1170.1	1.51784	261.07
303.15 K, x2 = 0.5005	1135	1.51563	88.95
303.15 K, x2 = 0.7497	1105.8	1.51228	26.98
308.15 K, x2 = 0	1197.3	1.52294	882.82
308.15 K, x2 = 0.2502	1166.8	1.51636	183.69
308.15 K, x2 = 0.5005	1131.7	1.51409	67.28
308.15 K, x2 = 0.7497	1102.3	1.51064	22.2
313.15 K, x2 = 0	1194	1.52159	588.27
313.15 K, x2 = 0.2502	1163.5	1.51489	133.41
313.15 K, x2 = 0.5005	1128.4	1.51254	52.28
313.15 K, x2 = 0.7497	1098.9	1.50899	18.36
318.15 K, x2 = 0	1190.9	1.52022	405.12
318.15 K, x2 = 0.2502	1160.5	1.51343	98.94
318.15 K, x2 = 0.5005	1125.1	1.51099	41.25
318.15 K, x2 = 0.7497	1095.6	1.50736	15.72
323.15 K, x2 = 0	1187.8	1.51887	287.6
323.15 K, x2 = 0.2502	1157.3	1.51199	75.39
323.15 K, x2 = 0.5005	1121.8	1.50943	33.28
323.15 K, x2 = 0.7497	1092.2	1.50574	13.48
328.15 K, x2 = 0	1184.7	1.51755	209.91
328.15 K, x2 = 0.2502	1154	1.51051	58.75
328.15 K, x2 = 0.5005	1118.5	1.50784	27.29
328.15 K, x2 = 0.7497	1088.9	1.50408	11.68
333.15 K, x2 = 0	1181.7	1.5162	157.29
333.15 K, x2 = 0.2502	1150.8	1.50902	46.9
333.15 K, x2 = 0.5005	1115.1	1.50632	22.78
333.15 K, x2 = 0.7497	1085.6	1.50253	10.07
338.15 K, x2 = 0	1178.7	1.51486	119.86
338.15 K, x2 = 0.2502	1147.6	1.50755	37.79
338.15 K, x2 = 0.5005	1111.9	1.50475	19.18
338.15 K, x2 = 0.7497	1082.2	1.50093	9.03
343.15 K, x2 = 0	1175.7	1.51353	93.36
343.15 K, x2 = 0.2502	1144.4	1.50611	31.01
343.15 K, x2 = 0.5005	1108.6	1.50324	16.37
343.15 K, x2 = 0.7497	1078.9	1.49932	8.03
348.15 K, x2 = 0	1172.8	1.5122	74.03
348.15 K, x2 = 0.2502	1141.2	1.50459	25.75
348.15 K, x2 = 0.5005	1105.2	1.50173	14.12
348.15 K, x2 = 0.7497	1075.7	1.49774	7.19
353.15 K, x2 = 0	1169.7	1.51084	59.91
353.15 K, x2 = 0.2502	1138	1.50318	21.14
353.15 K, x2 = 0.5005	1101.8	1.50018	12.31
353.15 K, x2 = 0.7497	1072.3	1.49615	6.36
